Laboratory results: US20250197387A1, “BCL-XL DEGRADERS AND USES THEREOF” (Kymera Therapeutics, Inc., priority 2021, published 2025)

How the values were obtained:
Assay type in all cases: cell-based
Caki-2 cells = test: CTG (CellTiter-Glo) cell viability assay, Caki-2; conditions: Homo sapiens, 72 h, 3 day incubation, read-out: CTG Chempartner - Caki-2 3 day: Average external-IC50
Method in brief: (§1)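 IC50 is from a three-parameter logistic fit of CellTiter-Glo luminescence after 3-day treatment of cells seeded at 10,000 per well. Codes: MOLT-4 A <0.1, B 0.1-1.0, C >1.0-3.0, D >3.0 μM; Caki-2 A <0.1, B 0.1-1.0, C >1.0-10.0, D >10.0 μM.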

MOLT-4 cells = test: CTG (CellTiter-Glo) cell viability assay, MOLT-4; conditions: Homo sapiens, MOLT-4, 72 h, 3 day incubation, read-out: CTG Cell Viability Assay - MOLT-4 3 day: Average external-IC50
Method in brief: as §1

BCL-XL = biological target: T1, BCL-XL (Homo sapiens, UniProt Q07817); test: Bcl-xL ELISA degradation in MOLT-4 cells, 6 h; conditions: for DC50: read-out: Bcl-xL ELISA in MOLT-4 degradation 6 h: Mean external-Abs DC50
T1 construct: endogenous in cells; host or cells: MOLT-4
Protocol: The letter codes for BCL-XL DC50 include: A (<0.01 μM); B (0.01-0.1 μM); C (>[…]); D (>0.5-1.0 μM); and E (>1.0 μM). The letter codes for Dmax % include A (>75%); B (50 to 75%); C (<50%).

T1 sequence (Q07817 whole entry): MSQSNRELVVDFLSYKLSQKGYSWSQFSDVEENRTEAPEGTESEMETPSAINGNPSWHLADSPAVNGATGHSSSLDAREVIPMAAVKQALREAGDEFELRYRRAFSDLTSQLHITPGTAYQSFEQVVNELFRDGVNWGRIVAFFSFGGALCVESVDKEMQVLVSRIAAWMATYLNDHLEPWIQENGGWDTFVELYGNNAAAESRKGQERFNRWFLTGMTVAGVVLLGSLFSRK

SMILES	IC50 (MOLT-4 cells)	Dmax (BCL-XL)	DC50 (BCL-XL)	IC50 (Caki-2 cells)
Cc1ncsc1-c1ccc([C@H](C)NC(=O)[C@@H]2C[C@@H](O)CN2C(=O)[C@@H](NC(=O)C2CCN(c3ccc(S(=O)(=O)NC(=O)c4nc(N5CCc6cccc(C(=O)Nc7nc8ccccc8s7)c6C5)ccc4-c4cnn(CC5CCCCC5)c4C)cc3COP(=O)(O)O)CC2)C(C)(C)C)cc1 [I-334]	1000 to 3000 nM	> 75%	100 to 500 nM	1 to 10 µM
Cc1ncsc1-c1ccc([C@H](C)NC(=O)[C@@H]2C[C@@H](O)CN2C(=O)[C@@H](NC(=O)c2ccc(N3CCC(S(=O)(=O)NC(=O)c4nc(N5CCc6cccc(C(=O)Nc7nc8ccccc8s7)c6C5)ccc4-c4cnn(CC5CCCCC5)c4C)CC3)cc2)C(C)(C)C)cc1 [I-303]	100 to 1000 nM	> 75%	100 to 500 nM	1 to 10 µM
Cc1cc(N(C)c2ccc(-c3cnn(CC4CCCC4)c3C)c(C(=O)NS(=O)(=O)CCCCCC(=O)N[C@H](C(=O)N3C[C@H](O)C[C@H]3C(=O)N[C@@H](C)c3ccc(-c4scnc4C)cc3)C(C)(C)C)n2)nnc1Nc1nc2ccccc2s1 [I-443]	> 3000 nM	> 75%	100 to 500 nM	> 10 µM
Cc1ncsc1-c1ccc([C@H](C)NC(=O)[C@@H]2C[C@@H](O)CN2C(=O)[C@@H](NC(=O)CCCCCS(=O)(=O)NC(=O)c2nc(N3CCc4cccc(C(=O)Nc5nc6ccccc6s5)c4C3)ccc2-c2cccc(OC(C)C)c2C)C(C)(C)C)cc1 [I-309]	1000 to 3000 nM	50 to 75%	100 to 500 nM	1 to 10 µM
Cc1ncsc1-c1ccc(CNC(=O)[C@@H]2C[C@@H](O)CN2C(=O)[C@@H](NC(=O)C2(F)CC2)C(C)(C)C)c(OCCN2CCN(CC[C@H](CSc3ccccc3)Nc3ccc(S(=O)(=O)NC(=O)c4ccc(N5CC6(CC(N7CCC[C@H]7c7ccccc7C7CC7)C6)C5)cc4)cc3S(=O)(=O)C(F)(F)F)CC2)c1 [I-400]	100 to 1000 nM	> 75%	10 to 100 nM	> 10 µM
Cc1ncsc1-c1ccc([C@H](C)NC(=O)[C@@H]2C[C@@H](O)CN2C(=O)[C@@H](NC(=O)CCCCCS(=O)(=O)NC(=O)c2nc(N3CCc4cccc(C(=O)Nc5nc6cccnc6s5)c4C3)ccc2-c2cnn(CC(C)(C)C)c2C)C(C)(C)C)cc1 [I-466]	1000 to 3000 nM	> 75%	100 to 500 nM	> 10 µM
Cc1cc(N(C)c2ccc(-c3cnn(CC45CC6CC(CC(C6)C4)C5)c3C)c(C(=O)NS(=O)(=O)CCCC(=O)N[C@H](C(=O)N3C[C@H](O)C[C@H]3C(=O)N[C@@H](C)c3ccc(-c4scnc4C)cc3)C(C)(C)C)n2)nnc1Nc1nc2cccnc2s1 [I-452]	1000 to 3000 nM	> 75%	100 to 500 nM	> 10 µM
Cc1cc(N(C)c2ccc(-c3cnn(CC45CC6CC(CC(C6)C4)C5)c3C)c(C(=O)NS(=O)(=O)CCCCCC(=O)N[C@H](C(=O)N3C[C@H](O)C[C@H]3C(=O)N[C@@H](C)c3ccc(C#N)cc3)C(C)(C)C)n2)nnc1Nc1nc2ccccc2s1 [I-464]	100 to 1000 nM	> 75%	10 to 100 nM	> 10 µM
Cc1cc(N(C)c2ccc(-c3cnn(CC45CC6CC(CC(C6)C4)C5)c3C)c(C(=O)NS(=O)(=O)CCCCCC(=O)N[C@H](C(=O)N3C[C@H](O)C[C@H]3C(=O)NCc3ccc(-c4scnc4C)cc3)C(C)(C)C)n2)nnc1Nc1nc2cccnc2s1 [I-451]	100 to 1000 nM	> 75%	10 to 100 nM	> 10 µM
C#Cc1ccc(CNC(=O)[C@@H]2C[C@@H](O)CN2C(=O)[C@@H](NC(=O)CCCCCS(=O)(=O)NC(=O)c2nc(N3CCc4cccc(C(=O)Nc5nc6ccccc6s5)c4C3)ccc2-c2cnn(CC3CCCCC3)c2C)C(C)(C)CCOP(=O)(O)O)cc1 [I-417]	> 3000 nM	50 to 75%	> 1000 nM	> 10 µM

The next lines start with results.

IC50 (MOLT-4 cells)	Dmax (BCL-XL)	DC50 (BCL-XL)	SMILES	IC50 (Caki-2 cells)
100 to 1000 nM	> 75%	10 to 100 nM	Cc1ncsc1-c1ccc([C@H](C)NC(=O)[C@@H]2C[C@@H](O)CN2C(=O)[C@@H](NC(=O)C2CCN(c3ccc(S(=O)(=O)NC(=O)c4nc(N5CCc6cccc(C(=O)Nc7nc8ccccc8s7)c6C5)ccc4-c4cnn(CC5CC5)c4C)cc3)CC2)C(C)(C)C)cc1 [I-344]	> 10 µM
< 100 nM	> 75%	< 10 nM	CCC(CC)Cn1ncc(-c2ccc(N3CCc4cccc(C(=O)Nc5nc6ccccc6s5)c4C3)nc2C(=O)NS(=O)(=O)c2ccc(N3CCC(C(=O)N[C@H](C(=O)N4C[C@H](O)C[C@H]4C(=O)N[C@@H](C)c4ccc(-c5scnc5C)cc4)C(C)(C)C)CC3)cc2)c1C [I-349]	> 10 µM
< 100 nM	> 75%	10 to 100 nM	C#Cc1ccc(CNC(=O)[C@@H]2C[C@@H](O)CN2C(=O)[C@@H](NC(=O)CCN(C)CCS(=O)(=O)NC(=O)c2nc(N(C)c3cc(C)c(Nc4nc5ccccc5s4)nn3)ccc2-c2cnn(CC34CC5CC(CC(C5)C3)C4)c2C)C(C)(C)C)cc1 [I-430]	> 10 µM
< 100 nM	> 75%	< 10 nM	Cc1ncsc1-c1ccc([C@H](C)NC(=O)[C@@H]2C[C@@H](O)CN2C(=O)[C@@H](NC(=O)C2CCCN(c3ccc(S(=O)(=O)NC(=O)c4nc(N5CCc6cccc(C(=O)Nc7nc8ccccc8s7)c6C5)ccc4-c4cnn(CC5CCCCC5)c4C)cc3)C2)C(C)(C)C)cc1 (some centres unmarked) [I-419]	1 to 10 µM
< 100 nM	> 75%	10 to 100 nM	Cc1ncsc1-c1ccc([C@H](C)NC(=O)[C@@H]2C[C@@H](O)CN2C(=O)[C@@H](NC(=O)CCCCCS(=O)(=O)NC(=O)c2nc(N3CCc4cccc(C(=O)Nc5nc6ccccc6s5)c4C3)ccc2-c2cnn(CC3CCCCC3)c2C)C(C)(C)CCO)cc1 [I-365]	> 10 µM
< 100 nM	> 75%	< 10 nM	C#Cc1ccc([C@H](C)NC(=O)[C@@H]2C[C@@H](O)CN2C(=O)[C@@H](NC(=O)CCCCCS(=O)(=O)NC(=O)c2nc(N3CCc4cccc(C(=O)Nc5nc6cccnc6s5)c4C3)ccc2-c2cnn(CC3CCCCC3)c2C)C(C)(C)C)c(O)c1 [I-479]	> 10 µM
< 100 nM	> 75%	< 10 nM	C#Cc1ccc([C@H](COC)NC(=O)[C@@H]2C[C@@H](O)CN2C(=O)[C@@H](NC(=O)CCCCCS(=O)(=O)NC(=O)c2nc(N(C)c3cc(C)c(Nc4nc5ccccc5s4)nn3)ccc2-c2cnn(CC34CC5CC(CC(C5)C3)C4)c2C)C(C)(C)C)cc1 [I-476]	> 10 µM
< 100 nM	> 75%	< 10 nM	C#Cc1ccc([C@H](C)NC(=O)[C@@H]2C[C@@H](O)CN2C(=O)[C@@H](NC(=O)CCCCCS(=O)(=O)NC(=O)c2nc(N3CCc4cccc(C(=O)Nc5nc6cccnc6s5)c4C3)ccc2-c2cnn(CC3CCCCC3)c2C)C(C)(C)C)cc1 [I-364]	> 10 µM
< 100 nM	> 75%	< 10 nM	C#Cc1ccc([C@H](C)NC(=O)[C@@H]2C[C@@H](O)CN2C(=O)[C@@H](NC(=O)C2CN(c3ccc(S(=O)(=O)NC(=O)c4nc(N(C)c5cc(C)c(Nc6nc7ccccc7s6)nn5)ccc4-c4cnn(CC56CC7CC(CC(C7)C5)C6)c4C)cc3)C2)C(C)(C)C)cc1 [I-438]	> 10 µM
< 100 nM	> 75%	10 to 100 nM	Cc1ncsc1-c1ccc([C@H](C)NC(=O)[C@@H]2C[C@@H](O)CN2C(=O)[C@@H](NC(=O)CCCCCS(=O)(=O)NC(=O)c2nc(N3CCc4cccc(C(=O)Nc5nc6ccccc6s5)c4C3)ccc2-c2ccnc(OC(C)C)c2C)C(C)(C)C)cc1 [I-315]	> 10 µM
